Target: T1, human PPARdelta (Homo sapiens, UniProt Q03181)
T1 construct: amino acids S139-Y441; expressed in transfected cells
T1 sequence (Q03181 139-441): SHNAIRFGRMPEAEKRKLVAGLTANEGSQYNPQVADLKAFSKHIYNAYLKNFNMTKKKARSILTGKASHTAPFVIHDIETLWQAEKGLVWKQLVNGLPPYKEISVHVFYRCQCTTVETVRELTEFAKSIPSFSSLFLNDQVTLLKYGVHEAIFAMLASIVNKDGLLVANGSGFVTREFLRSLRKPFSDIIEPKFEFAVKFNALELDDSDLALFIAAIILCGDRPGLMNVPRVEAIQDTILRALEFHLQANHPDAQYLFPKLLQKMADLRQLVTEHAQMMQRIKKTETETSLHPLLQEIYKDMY
Assay: Cellular PPARdelta assay (luciferase reporter, stably transfected HEK cell line)
Format: cell-based
Conditions: GR-GAL4-humanPPARdelta-LBD
Protocol: The activity of PPARalpha agonists is determined in a 3-day assay which is described below:
The PPARalpha reporter cell line is cultivated to 80% confluence in DMEM (#41965-039, Invitrogen) which is mixed with the following additions: 10% cs-FCS (fetal calf serum; #SH-30068.03, Hyclone), 0.5 mg/ml zeocin (#R250-01, Invitrogen), 0.5 mg/ml G418 (#10131-027, Invitrogen), 1% penicillin-streptomycin solution (#15140-122, Invitrogen) and 2 mM L-glutamine (#25030-024, Invitrogen). The cultivation takes place in standard cell culture bottles (#353112, Becton Dickinson) in a cell culture incubator at 37° C. in the presence of 5% CO2. The 80%-confluent cells are washed once with 15 ml of PBS (#14190-094, Invitrogen), treated with 3 ml of trypsin solution (#25300-054, Invitrogen) at 37° C. for 2 min, taken up in 5 ml of the DMEM described and counted in a cell counter. After dilution to 500.000 cells/ml, 35,000 cells are seeded in each well of a 96 well microtiter plate with a clear plastic base (#3610, Corning Costar). The plates are incubated in the cell culture incubator at 37° C. and 5% CO2 for 24 h.
PPARalpha Agonists to be Tested are Dissolved in DMSO in a Concentration of 10 mM. This stock solution is diluted in DMEM (#41965-039, Invitrogen) which is mixed with 5% cs-FCS (#SH-30068.03, Hyclone), 2 mM L-glutamine (#25030-024, Invitrogen) and the previously described antibiotics (zeocin, G418, penicillin and streptomycin). Test substances are tested in 11 different concentrations in the range from 10 μM to 100 pM.
The medium of the PPARalpha reporter cell line seeded on day 1 is completely removed by aspiration, and the test substances diluted in medium are immediately added to the cells. The dilution and addition of the substances is carried out by a robot (Beckman FX). The final volume of the test substances diluted in medium is 100 μl per well of a 96 well microtiter plate. The DMSO concentration in the assay is less than 0.1% v/v in order to avoid cytotoxic effects of the solvent.
The assay plates are incubated in an incubator at 37° C. and 5% CO2 for 24 h.
The PPARalpha reporter cells treated with the test substances are removed from the incubator, and the medium is aspirated off. The cells are lyzed by pipetting 50 μl of Bright Glo reagent (from Promega) into each well of a 96 well microtiter plate. After incubation at room temperature in the dark for 10 minutes, the microtiter plates are measured in the luminometer (Trilux from Wallac). The measuring time for each well of a microtiter plate is 1 sec.
The raw data from the luminometer are transferred into a Microsoft Excel file. Dose-effect plots and EC50 values of PPAR agonists are calculated using the XL.Fit program as specified by the manufacturer (IDBS).
The potency of substances which bind to human PPARdelta and activate it in an agonistic manner is analyzed using a stably transfected HEK cell line (HEK=human embryo kidney) which is referred to here as PPARdelta reporter cell line. In analogy to the assay described for PPARalpha, the PPARdelta reporter cell line also contains two genetic elements, a luciferase reporter element (pdeltaM-GAL4-Luc-Zeo) and a PPARdelta fusion protein (GR-GAL4-humanPPARdelta-LBD) which mediates expression of the luciferase reporter element depending on a PPARdelta ligand. The stably and constitutively expressed fusion protein GR-GAL4-humanPPARdelta-LBD binds in the cell nucleus of the PPARdelta reporter cell line via the GAL4 protein portion to the GAL4 DNA binding motifs 5′-upstream of the luciferase reporter element which is stably integrated in the genome of the cell line. There is only little expression of the luciferase reporter gene in the absence of a PPARdelta ligand if fatty acid-depleted fetal calf serum (cs-FCS) is used in the assay. PPARdelta ligands bind and activate the PPARdelta fusion protein and thereby stimulate expression of the luciferase reporter gene. […]

SMILES	EC50 [nM]
CCOc1cc(C(F)(F)F)ccc1C(=O)NCC(C)c1ccc(S(=O)(=O)Nc2nnc(C(C)C)s2)cc1 (racemic) [Example 43, 2-Ethoxy-N-{2-[4-(5-isopropyl-[1,3,4]thiadiazol-2-ylsulfamoyl)-phenyl]-propyl}-4-trifluoromethyl-benzamide]	20
CCOc1cc(C(F)(F)F)ccc1C(=O)NCC(C)c1ccc(S(=O)(=O)Nc2nnc(C(C)C)s2)cc1 (single isomer, unassigned) [Example 43a]	40
CCOc1cc(C(F)(F)F)ccc1C(=O)NCC(C)c1ccc(S(=O)(=O)Nc2nnc(C(C)C)s2)cc1 (single isomer, unassigned) [Example 43b]	20
CCOc1cc(C(F)(F)F)ccc1C(=O)NCC(CC)c1ccc(S(=O)(=O)Nc2nnc(C(C)C)s2)cc1 (single isomer, unassigned) [Example 44a]	40
CCOc1cc(C(F)(F)F)ccc1C(=O)NCC(CC)c1ccc(S(=O)(=O)Nc2nnc(C(C)C)s2)cc1 (single isomer, unassigned) [Example 44b]	10
COc1cc(C(F)(F)F)ccc1C(=O)NCCc1ccc(S(=O)(=O)Nc2nnc(C(C)C)s2)cc1 [Example 1, N-{2-[4-(5-Isopropyl-[1,3,4]thiadiazol-2-ylsulfamoyl)-phenyl]-ethyl}-2-methoxy-4-trifluoromethyl-benzamide]	110
COc1ccc(C(C)(C)C)cc1C(=O)NCCc1ccc(S(=O)(=O)Nc2nnc(C(C)C)s2)cc1 [Example 2, 5-tert-Butyl-N-{2-[4-(5-isopropyl-[1,3,4]thiadiazol-2-ylsulfamoyl)-phenyl]-ethyl}-2-methoxy-benzamide]	440
COc1ccc(C(=O)NCCc2ccc(S(=O)(=O)Nc3nnc(C(C)C)s3)cc2)c(OC)n1 [Example 5, N-{2-[4-(5-Isopropyl-[1,3,4]thiadiazol-2-ylsulfamoyl)-phenyl]-ethyl}-2,6-dimethoxy-nicotinamide]	1100
CC(C)c1nnc(NS(=O)(=O)c2ccc(CNC(=O)c3ccc(C(F)(F)F)cc3)cc2)s1 [Example 24, N-[4-(5-Isopropyl-[1,3,4]thiadiazol-2-ylsulfamoyl)-benzyl]-4-trifluoromethyl-benzamide]	760
Cc1ccc(Cl)cc1C(=O)NCCc1ccc(S(=O)(=O)Nc2nnc(-c3ccccc3)s2)cc1 [Example 32, 5-Chloro-2-methyl-N-{2-[4-(5-phenyl-[1,3,4]thiadiazol-2-ylsulfamoyl)-phenyl]-ethyl}-benzamide]	3610
CC(C)(C)c1nnc(NS(=O)(=O)c2ccc(CCNC(=O)c3cc(Cl)ccc3Cl)cc2)s1 [Example 35, N-{2-[4-(5-tert-Butyl-[1,3,4]thiadiazol-2-ylsulfamoyl)-phenyl]-ethyl}-2,5-dichloro-benzamide]	2800
Cc1cc(Br)c(C(=O)NCCc2ccc(S(=O)(=O)Nc3nnc(C(C)C)s3)cc2)s1 [Example 47, 3-Bromo-5-methyl-thiophene-2-carboxylic acid {2-[4-(5-isopropyl-[1,3,4]thiadiazol-2-ylsulfamoyl)-phenyl]-ethyl}-amide]	60

— patent US7858647B2, “N-[1,3,4]-thiadiazol-2-yl-benzene sulfonamides, pharmaceutical compositions thereof and methods for their therapeutic use” (Sanofi-Aventis, priority 2005, dated 2010)
